For assay [1], the system named is Enterococcus gallinarum 245. As to the kind of experiment: broth micro-dilution MIC. Format: cell-based. Particulars: Enterococcus gallinarum 245. The method, then:
(§1) The formula I compounds have in vitro and in vivo activity against Gram-positive pathogenic bacteria. The MIC's were determined using a standard broth micro-dilution assay.
Background: Dilution methods test growth across graded concentrations, often in twofold steps.

For assay [2], the system named is Staphylococcus epidermidis 270. As to the kind of experiment: broth micro-dilution MIC. It counts as cell-based. The procedure: as §1
The test system of assay [3] is Staphylococcus haemolyticus 105. As to the kind of experiment: broth micro-dilution MIC. Format: cell-based. The method, then:
as §1

In assay [4] the test system is Staphylococcus haemolyticus 415. As to the kind of experiment: broth micro-dilution MIC. Format: cell-based. The method, then:
as §1

Assay [5] deals with Streptococcus pneumoniae P1. As to the kind of experiment: broth micro-dilution MIC. Format: cell-based. The procedure:
as §1

Another assay relates to Entercoccus faecium 2041. Put plainly: broth micro-dilution MIC. The settings on record: Entercoccus faecium 2041. Format: cell-based. The method, then:
as §1

The test system of assay [6] is Haemophilus influenzae RD. As to the kind of experiment: broth micro-dilution MIC. It counts as cell-based. The settings on record: Haemophilus influenzae RD. The procedure:
as §1

The test system of a further assay is Entercoccus faecium 180. As to the kind of experiment: broth micro-dilution MIC. It counts as cell-based. Particulars: Entercoccus faecium 180. The procedure:
as §1

The test system of assay [7] is vancomycin-resistant enterococci. As to the kind of experiment: broth micro-dilution, mean geometric MIC. Particulars: enterococci, 24-hour incubation. It counts as cell-based, Enterococcus faecium and Enterococcus faecalis.
Assay [8] has as its system vancomycin-susceptible enterococci. Put plainly: broth micro-dilution, mean geometric MIC. The settings on record: enterococci, 24-hour incubation. Format: cell-based, Enterococcus faecium and Enterococcus faecalis.
Assay [9] deals with Staphylococcus aureus SA1199B. It counts as cell-based. The procedure:
(§2) The MIC's were determined using a standard broth micro-dilution assay.

Assay [10] relates to Staphylococcus aureus S13E. It counts as cell-based. The method, then:
as §2

The subject of assay [11] is Staphylococcus aureus 491. Put plainly: broth micro-dilution MIC. Format: cell-based. The method, then:
as §2

The test system of assay [12] is Staphylococcus aureus SA1199. Put plainly: broth micro-dilution MIC. It counts as cell-based. The procedure:
as §2

Assay [13] has as its system Entercoccus faecium 180-1. As to the kind of experiment: broth micro-dilution MIC. It counts as cell-based. The procedure:
as §2

The subject of assay [14] is Streptococcus pyogenes C203. As to the kind of experiment: broth micro-dilution MIC. It counts as cell-based. The procedure:
as §2

The subject of assay [15] is Staphylococcus aureus 489. As to the kind of experiment: broth micro-dilution MIC. Format: cell-based. The procedure: as §2
Assay [16] concerns Staphylococcus aureus 446. Put plainly: broth micro-dilution MIC. It counts as cell-based. The procedure: as §2
The subject of assay [17] is Staphylococcus aureus X778. As to the kind of experiment: broth micro-dilution MIC. Format: cell-based. The procedure: as §2
Assay [18] deals with Staphylococcus aureus X400. Put plainly: broth micro-dilution MIC. Format: cell-based. The procedure: as §2
A further assay relates to Entercoccus faecium 276. As to the kind of experiment: broth micro-dilution MIC. Format: cell-based. The procedure: as §2
The subject of assay [19] is Staphylococcus aureus SA1199A. Put plainly: broth micro-dilution MIC. It counts as cell-based. The procedure:
as §2

For assay [20], the system named is Staphylococcus aureus 447. As to the kind of experiment: broth micro-dilution MIC. It counts as cell-based. The method, then: as §2

In brackets after ≈: the same amount, converted by molar mass.

Turning to `CNC(CC(C)C)C(=O)NC1C(=O)NC(CC(N)=O)C(=O)NC2C(=O)NC3C(=O)NC(C(=O)NC(C(=O)O)c4cc(O)cc(O)c4-c4cc3ccc4O)C(OC3CC(C)(N)C(O)C(C)O3)c3ccc(c(Cl)c3)Oc3cc2cc(c3OC2OC(CO)C(O)C(O)C2OC2CC(C)(NCc3ccc(-c4ccccc4)cc3)C(O)C(C)O2)Oc2ccc(cc2)C1O` (stereo not shown) [Compound 185], the MIC entry (in [1]; in assay [2]; in assay [3]; in assay [4]; in [5]; against Entercoccus faecium 2041) was “≤ .06 mg/L” throughout. Further, the MIC in assay [6] was 8 mg/L (≈ 4.64 µM); in the assay on Entercoccus faecium 180, 0.125 mg/L (≈ 0.0725 µM); in [9], “≤ .06 mg/L”; in [10], “≤ .06 mg/L”; in assay [11] it was “≤ .06 mg/L”; in assay [12], “≤ .06 mg/L”. The MIC result in [13], in assay [14], in assay [15], in assay [16], in assay [17] and in assay [18] was “≤ .06 mg/L” each time. Moreover, the MIC result (with Entercoccus faecium 276; in assay [19]; in assay [20]) was “≤ .06 mg/L” throughout. Also, the “mean geometric MIC, Vancomycin Resistant Strains” value in assay [7] worked out at 4.7 mg/L. The “mean geometric MIC, Vancomycin Sensitive Strains” value in [8] was 0.060 mg/L.
`CNC(CC(C)C)C(=O)NC1C(=O)NC(CC(N)=O)C(=O)NC2C(=O)NC3C(=O)NC(C(=O)NC(C(=O)O)c4cc(O)cc(O)c4-c4cc3ccc4O)C(OC3CC(C)(N)C(O)C(C)O3)c3ccc(c(Cl)c3)Oc3cc2cc(c3OC2OC(CO)C(O)C(O)C2OC2CC(C)(NCCCCCCCCOc3ccccc3)C(O)C(C)O2)Oc2ccc(cc2Cl)C1O` (stereo not shown) [Compound 195]: the MIC was 4 mg/L (≈ 2.23 µM) in assay [1]; 0.25 mg/L (≈ 0.139 µM) in assay [2]; 1 mg/L (≈ 0.557 µM) in assay [3]; 4 mg/L (≈ 2.23 µM) in assay [4]; at most 0.06 mg/L in [5]; at most 0.06 mg/L against Entercoccus faecium 2041. The MIC in assay [6] is 32 mg/L (≈ 17.8 µM); against Entercoccus faecium 180, 0.5 mg/L (≈ 0.278 µM); in assay [9], 1 mg/L (≈ 0.557 µM); in [10], 2 mg/L (≈ 1.11 µM); in assay [11] it was 0.5 mg/L (≈ 0.278 µM); in assay [12], 0.5 mg/L (≈ 0.278 µM). Moreover, the MIC was at most 0.06 mg/L in assay [13]; at most 0.06 mg/L in assay [14]; 1 mg/L (≈ 0.557 µM) in [15]; 0.5 mg/L (≈ 0.278 µM) in assay [16]; 0.5 mg/L (≈ 0.278 µM) in [17]; 2 mg/L (≈ 1.11 µM) in assay [18]. For the same compound, the MIC is 0.25 mg/L (≈ 0.139 µM) in the assay with Entercoccus faecium 276, at most 0.06 mg/L in assay [19] and 1 mg/L (≈ 0.557 µM) in assay [20]. Also, the “mean geometric MIC, Vancomycin Resistant Strains” value in [7] was 2.0 mg/L. Besides, the “mean geometric MIC, Vancomycin Sensitive Strains” value in assay [8] amounted to 0.042 mg/L.
With `CNC(CC(C)C)C(=O)NC1C(=O)NC(CC(N)=O)C(=O)NC2C(=O)NC3C(=O)NC(C(=O)NC(C(=O)O)c4cc(O)cc(O)c4-c4cc3ccc4O)C(OC3CC(C)(N)C(O)C(C)O3)c3ccc(c(Cl)c3)Oc3cc2cc(c3OC2OC(CO)C(O)C(O)C2OC2CC(C)(NCCCCCCCCCCc3ccccc3)C(O)C(C)O2)Oc2ccc(cc2Cl)C1O` (stereo not shown) [Compound 197], the MIC was 4 mg/L (≈ 2.21 µM) in assay [1]; 0.5 mg/L (≈ 0.276 µM) in assay [2]; 1 mg/L (≈ 0.553 µM) in [3]; 4 mg/L (≈ 2.21 µM) in [4]; at most 0.06 mg/L in assay [5]; 0.25 mg/L (≈ 0.138 µM) against Entercoccus faecium 2041. Moreover, the MIC in [6] amounted to 32 mg/L (≈ 17.7 µM); with Entercoccus faecium 180 it was 0.5 mg/L (≈ 0.276 µM); in assay [9], 2 mg/L (≈ 1.11 µM); in assay [10], 2 mg/L (≈ 1.11 µM); in [11], 1 mg/L (≈ 0.553 µM); in [12], 2 mg/L (≈ 1.11 µM). In addition, the MIC in assay [13] is 0.25 mg/L (≈ 0.138 µM); in [14], at most 0.06 mg/L; in [15], 2 mg/L (≈ 1.11 µM); in assay [16] it was 1 mg/L (≈ 0.553 µM); in assay [17], 2 mg/L (≈ 1.11 µM); in assay [18], 2 mg/L (≈ 1.11 µM). Also, the figures for the MIC (with Entercoccus faecium 276; in assay [19]; in assay [20]) were 1 mg/L (≈ 0.553 µM), 1 mg/L (≈ 0.553 µM) and 2 mg/L (≈ 1.11 µM), respectively. Moreover, in assay [7], the “mean geometric MIC, Vancomycin Resistant Strains” value was found to be 1.2 mg/L. The “mean geometric MIC, Vancomycin Sensitive Strains” value in assay [8] was found to be 0.16 mg/L.
Take `CNC(CC(C)C)C(=O)NC1C(=O)NC(CC(N)=O)C(=O)NC2C(=O)NC3C(=O)NC(C(=O)NC(C(=O)O)c4cc(O)cc(O)c4-c4cc3ccc4O)C(OC3CC(C)(N)C(O)C(C)O3)c3ccc(c(Cl)c3)Oc3cc2cc(c3OC2OC(CO)C(O)C(O)C2OC2CC(C)(NCCCCCCCCBr)C(O)C(C)O2)Oc2ccc(cc2Cl)C1O` (stereo not shown) [Compound 198]: the MIC was 1 mg/L (≈ 0.561 µM) in assay [1]; 0.25 mg/L (≈ 0.14 µM) in [2]; 0.5 mg/L (≈ 0.28 µM) in assay [3]; 1 mg/L (≈ 0.561 µM) in [4]; at most 0.06 mg/L in assay [5]; at most 0.06 mg/L with Entercoccus faecium 2041. For the same compound, the MIC in assay [6] was 32 mg/L (≈ 17.9 µM); with Entercoccus faecium 180 it was at most 0.06 mg/L; in assay [9], 0.5 mg/L (≈ 0.28 µM); in assay [10] it was 0.125 mg/L (≈ 0.0701 µM); in [11] it was at most 0.06 mg/L; in assay [12], 0.5 mg/L (≈ 0.28 µM). Also, the MIC is at most 0.06 mg/L in [13]; at most 0.06 mg/L in assay [14]; 0.125 mg/L (≈ 0.0701 µM) in [15]; 1 mg/L (≈ 0.561 µM) in assay [16]; 0.125 mg/L (≈ 0.0701 µM) in assay [17]; 0.5 mg/L (≈ 0.28 µM) in assay [18]. For the same compound, the MIC was 0.25 mg/L (≈ 0.14 µM) in the assay on Entercoccus faecium 276, at most 0.06 mg/L in assay [19] and 0.125 mg/L (≈ 0.0701 µM) in assay [20]. In [7], the “mean geometric MIC, Vancomycin Resistant Strains” value was 3.4 mg/L. In addition, the “mean geometric MIC, Vancomycin Sensitive Strains” value in [8] is 0.062 mg/L.
Regarding `CNC(CC(C)C)C(=O)NC1C(=O)NC(CC(N)=O)C(=O)NC2C(=O)NC3C(=O)NC(C(=O)NC(C(=O)O)c4cc(O)cc(O)c4-c4cc3ccc4O)C(OC3CC(C)(N)C(O)C(C)O3)c3ccc(c(Cl)c3)Oc3cc2cc(c3OC2OC(CO)C(O)C(O)C2OC2CC(C)(NCCCCCCCCOc3ccc(Oc4ccccc4)cc3)C(O)C(C)O2)Oc2ccc(cc2Cl)C1O` (stereo not shown) [Compound 202], the MIC in [1] is 8 mg/L (≈ 4.24 µM); in assay [2], 4 mg/L (≈ 2.12 µM); in assay [3], 4 mg/L (≈ 2.12 µM); in assay [4], 8 mg/L (≈ 4.24 µM); in assay [5] it was at most 0.06 mg/L; with Entercoccus faecium 2041 it was 1 mg/L (≈ 0.529 µM). For the same compound, the MIC in assay [6] came to 32 mg/L (≈ 16.9 µM); against Entercoccus faecium 180, 0.5 mg/L (≈ 0.265 µM); in assay [9] it was 8 mg/L (≈ 4.24 µM); in [10], 4 mg/L (≈ 2.12 µM); in [11] it was 4 mg/L (≈ 2.12 µM); in assay [12], 8 mg/L (≈ 4.24 µM). In addition, the MIC is 0.5 mg/L (≈ 0.265 µM) in assay [13]; at most 0.06 mg/L in [14]; 4 mg/L (≈ 2.12 µM) in assay [15]; 4 mg/L (≈ 2.12 µM) in assay [16]; 4 mg/L (≈ 2.12 µM) in assay [17]; 4 mg/L (≈ 2.12 µM) in assay [18]. The MIC came to 4 mg/L (≈ 2.12 µM) with Entercoccus faecium 276, 2 mg/L (≈ 1.06 µM) in assay [19] and 8 mg/L (≈ 4.24 µM) in assay [20]. Further, the “mean geometric MIC, Vancomycin Resistant Strains” value in assay [7] is 1.4 mg/L. Further, the “mean geometric MIC, Vancomycin Sensitive Strains” value in assay [8] worked out at 0.76 mg/L.

Source of the values: patent publication US5840684A, “Glycopeptide antibiotic derivatives” (Eli Lilly and Company, priority 1995, dated 1998).
